Read-outs that look alike come from different tables or passages of the source.
What was measured:
E. coli ATCC 25922 = test: microbe, parasite or virus in culture; type: cell-based, Escherichia coli; design: key to FIC index antibiotic + GCol / FIC index antibiotic + GPMB: sum of FICs; ≤0.5 synergy, 0.5–4 additivity, >4 antagonism; details: for MIC: Escherichia coli, ATCC25922, 18 h, read-out: MIC alone
Method: (§1) The adjuvant properties of the guanidinylated polymyxins were evaluated using the checkerboard assay as previously described. The bacterial solution was prepared as described in the antimicrobial susceptibility assay. The antibiotic of interest and the adjuvant were serially diluted two-fold along the x- and y-axis on a 96-well plate, respectively, resulting in varying concentrations of both agents in each well. Equal volumes of bacterial solution were added to the designated wells. The well consisting of bacterial solution served as the positive control, while the wells containing only media served as the negative control. The plate was then incubated at 37 °C for 18 h. After incubation, an Emax Plus microplate reader (Molecular Devices, Union City, CA, USA) was used to measure the OD at a wavelength of 590 nm to confirm the turbidity. The fractional inhibitory concentration (FIC) index was then determined to establish the relationship between the antibiotic and adjuvant. The FIC index corresponds to the sum of the FICs of the antibiotic and adjuvant. The FIC of each agent is calculated by dividing its MIC when it is used in combination by its MIC when used alone. FIC indices ≤0.5, 0.5 < x ≤ 4 and >4 indicate synergy, additivity and antagonism, respectively.

E. cloacae 121187 = test: microbe, parasite or virus in culture; type: cell-based, Enterobacter cloacae; details: one value per checkerboard plate; for MIC: Enterobacter cloacae, 121187, agent alone; for MIC alone: agent alone
Method: as §1

[1] = system: P. aeruginosa P262-101856; test: Checkerboard assay; type: cell-based, Pseudomonas aeruginosa; details: Pseudomonas aeruginosa, P262101856, agent alone, one value per checkerboard plate
Method: as §1

P. aeruginosa 101243 = test: Checkerboard assay; type: cell-based, Pseudomonas aeruginosa; details: one value per checkerboard plate; for MIC: Pseudomonas aeruginosa, 101243, agent alone
Method: as §1

A. baumannii AB031 = test: Checkerboard assay; type: cell-based, Acinetobacter baumannii; details: one value per checkerboard plate; for MIC: Acinetobacter baumannii, AB031, agent alone
Method: as §1

E. coli 107115 = test: microbe, parasite or virus in culture; type: cell-based, Escherichia coli; details: one value per checkerboard plate; for MIC: Escherichia coli, 107115, agent alone
Method: as §1

E. coli 94474 = test: Checkerboard assay; type: cell-based, Escherichia coli; details: one value per checkerboard plate; for MIC: Escherichia coli, 94474, agent alone
Method: as §1

E. coli 94393 = test: Checkerboard assay; type: cell-based, Escherichia coli; details: one value per checkerboard plate; for MIC: Escherichia coli, 94393, agent alone
Method: as §1

A. baumannii AB027 = test: microbe, parasite or virus in culture; type: cell-based, Acinetobacter baumannii; details: one value per checkerboard plate; for MIC: Acinetobacter baumannii, AB027, agent alone; for MIC alone: agent alone
Method: as §1

A. baumannii ATCC 17978 = test: microbe, parasite or virus in culture; type: cell-based, Acinetobacter baumannii; details: for MIC: Acinetobacter baumannii, ATCC17978, 18 h, read-out: MIC alone
Method: as §1

A. baumannii 92247 = test: microbe, parasite or virus in culture; type: cell-based, Acinetobacter baumannii; details: one value per checkerboard plate; for MIC: Acinetobacter baumannii, 92247, agent alone
Method: as §1

A. baumannii 110193 = test: microbe, parasite or virus in culture; type: cell-based, Acinetobacter baumannii; details: one value per checkerboard plate; for MIC: Acinetobacter baumannii, 110193, agent alone; for MIC alone: agent alone
Method: as §1

K. pneumoniae 113254 = test: Checkerboard assay; type: cell-based, Klebsiella pneumoniae; details: one value per checkerboard plate; for MIC: Klebsiella pneumoniae, 113254, agent alone
Method: as §1

K. pneumoniae 113250 = test: Checkerboard assay; type: cell-based, Klebsiella pneumoniae; details: one value per checkerboard plate; for MIC: Klebsiella pneumoniae, 113250, agent alone; for MIC alone: agent alone
Method: as §1

P. aeruginosa PAO1 = test: microbe, parasite or virus in culture; type: cell-based, Pseudomonas aeruginosa; details: for MIC: Pseudomonas aeruginosa, PAO1, 18 h, read-out: MIC alone
Method: as §1

P. aeruginosa 114228 = test: microbe, parasite or virus in culture; type: cell-based, Pseudomonas aeruginosa; details: Pseudomonas aeruginosa, 114228, agent alone, one value per checkerboard plate
Method: as §1

P. aeruginosa P259-96918 = test: Checkerboard assay; type: cell-based, Pseudomonas aeruginosa; details: Pseudomonas aeruginosa, P25996918; agent alone, one value per checkerboard plate
Method: as §1

[2] = system: P. aeruginosa P264-104354; test: Checkerboard assay; type: cell-based, Pseudomonas aeruginosa; details: Pseudomonas aeruginosa, P264104354, agent alone, one value per checkerboard plate
Method: as §1

E. cloacae 118564 = test: Checkerboard assay; type: cell-based, Enterobacter cloacae; details: Enterobacter cloacae, 118564; agent alone, one value per checkerboard plate
Method: as §1

[3] = agent alone, one value per checkerboard plate

CC[C@H]1OC(=O)[C@H](C)[C@@H](O[C@H]2C[C@@](C)(OC)[C@@H](O)[C@H](C)O2)[C@H](C)[C@@H](O[C@@H]2O[C@H](C)C[C@H](N(C)C)[C@H]2O)[C@](C)(O)C[C@@H](C)C(=O)[C@H](C)[C@@H](O)[C@]1(C)O [Erythromycin]
Absolute MIC of antibiotic at 2 μg/mL GCol (E. coli ATCC 25922): 0.25 µg/mL
MIC (E. coli ATCC 25922; [3]): 32 µg/mL
MIC (E. cloacae 121187): 1020 µg/mL
MIC alone (E. cloacae 121187): 512 µg/mL
MIC [1]: 2050 µg/mL
MIC (P. aeruginosa 101243): 1020 µg/mL
MIC (A. baumannii AB031): 16 µg/mL
MIC (E. coli 107115): 2050 µg/mL
MIC (E. coli 94474): 64 µg/mL
MIC (E. coli 94393): 64 µg/mL
MIC (A. baumannii AB027): 8 µg/mL
MIC alone (A. baumannii AB027): 4 µg/mL
Absolute MIC of antibiotic at 2 μg/mL GCol (A. baumannii ATCC 17978): 32 µg/mL
Absolute MIC of antibiotic at 2 μg/mL GPMB (A. baumannii ATCC 17978): 0.5 µg/mL
MIC (A. baumannii ATCC 17978; [3]): 32 µg/mL
MIC (A. baumannii 92247): 8 µg/mL
MIC (A. baumannii 110193): 2 µg/mL
MIC alone (A. baumannii 110193): 4 µg/mL
MIC (K. pneumoniae 113254): 64 µg/mL
MIC (K. pneumoniae 113250): 32 µg/mL
MIC alone (K. pneumoniae 113250): 64 µg/mL
Absolute MIC of antibiotic at 4 μg/mL GCol (P. aeruginosa PAO1): 16 µg/mL
Absolute MIC of antibiotic at 4 μg/mL GPMB (P. aeruginosa PAO1): 2 µg/mL
MIC (P. aeruginosa 114228): 64 µg/mL

CO[C@H]1/C=C/O[C@@]2(C)Oc3c(C)c(O)c4c(O)c(c(/C=N/N5CCN(C)CC5)c(O)c4c3C2=O)NC(=O)/C(C)=C\C=C\[C@H](C)[C@H](O)[C@@H](C)[C@@H](O)[C@@H](C)[C@H](OC(C)=O)[C@@H]1C [Rifampicin]
Absolute MIC of antibiotic at 2 μg/mL GCol (E. coli ATCC 25922): 0.008 µg/mL
Absolute MIC of antibiotic at 2 μg/mL GPMB (E. coli ATCC 25922): 0.008 µg/mL
FIC index antibiotic + GCol (E. coli ATCC 25922): 0.023
FIC index antibiotic + GPMB (E. coli ATCC 25922): 0.07
MIC (E. coli ATCC 25922; [3]): 2 µg/mL
Fold-potentiation of antibiotic (E. coli ATCC 25922; at 2 μg/mL GCol): 256
Fold-potentiation of antibiotic (E. coli ATCC 25922; at 2 μg/mL GPMB): 256
MIC (E. cloacae 121187): 1 µg/mL
MIC alone (E. cloacae 121187): 2 µg/mL
MIC [1]: 512 µg/mL
MIC (P. aeruginosa P259-96918): 16 µg/mL
MIC (P. aeruginosa 101243): 2 µg/mL
MIC alone (P. aeruginosa 101243; agent alone): 4 µg/mL
MIC [2]: 16 µg/mL
MIC (A. baumannii AB031): 2 µg/mL
MIC alone (A. baumannii AB031; agent alone): 1 µg/mL
MIC (E. cloacae 118564): 8 µg/mL
MIC (E. coli 107115): 32 µg/mL
MIC alone (E. coli 107115; agent alone): 16 µg/mL
MIC (E. coli 94474): 8 µg/mL
MIC alone (E. coli 94474; agent alone): 4 µg/mL
MIC (E. coli 94393): 8 µg/mL
MIC alone (E. coli 94393; agent alone): 4 µg/mL
MIC (A. baumannii AB027): 2 µg/mL
MIC alone (A. baumannii AB027): 1 µg/mL
Absolute MIC of antibiotic at 2 μg/mL GCol (A. baumannii ATCC 17978): 0.0625 µg/mL
Absolute MIC of antibiotic at 2 μg/mL GPMB (A. baumannii ATCC 17978): 0.004 µg/mL
FIC index antibiotic + GPMB (A. baumannii ATCC 17978): 0.066
MIC (A. baumannii ATCC 17978; [3]): 2 µg/mL
Fold-potentiation of antibiotic (A. baumannii ATCC 17978; at 2 μg/mL GCol): 32
Fold-potentiation of antibiotic (A. baumannii ATCC 17978; at 2 μg/mL GPMB): 512
MIC (A. baumannii 92247): 1 µg/mL
MIC alone (A. baumannii 92247; agent alone): 0.5 µg/mL
MIC (A. baumannii 110193): 2 µg/mL
MIC alone (A. baumannii 110193): 1 µg/mL
MIC (K. pneumoniae 113254): 8 µg/mL
MIC alone (K. pneumoniae 113254; agent alone): 16 µg/mL
MIC (K. pneumoniae 113250): 16 µg/mL
MIC alone (K. pneumoniae 113250): 32 µg/mL
Absolute MIC of antibiotic at 4 μg/mL GCol (P. aeruginosa PAO1): 0.0625 µg/mL
Absolute MIC of antibiotic at 4 μg/mL GPMB (P. aeruginosa PAO1): 0.03125 µg/mL
MIC (P. aeruginosa PAO1; [3]): 16 µg/mL
Fold-potentiation of antibiotic (P. aeruginosa PAO1; at 4 μg/mL GCol): 256
Fold-potentiation of antibiotic (P. aeruginosa PAO1; at 4 μg/mL GPMB): 512
MIC (P. aeruginosa 114228): 16 µg/mL

NC[C@H]1O[C@H](O[C@H]2[C@H](O)[C@@H](O[C@H]3O[C@H](CO)[C@@H](O)[C@H](N)[C@H]3O)[C@H](N)C[C@@H]2N)[C@H](N)C[C@@H]1O [Tobramycin]
Absolute MIC of antibiotic at 2 μg/mL GCol (E. coli ATCC 25922): 1 µg/mL
Absolute MIC of antibiotic at 2 μg/mL GPMB (E. coli ATCC 25922): 1 µg/mL
FIC index antibiotic + GCol (E. coli ATCC 25922): 0.516
FIC index antibiotic + GPMB (E. coli ATCC 25922): 1.031
MIC (E. coli ATCC 25922; [3]): 2 µg/mL
Fold-potentiation of antibiotic (E. coli ATCC 25922; at 2 μg/mL GCol): 2
Fold-potentiation of antibiotic (E. coli ATCC 25922; at 2 μg/mL GPMB): 1
Absolute MIC of antibiotic at 2 μg/mL GCol (A. baumannii ATCC 17978): 1 µg/mL
Absolute MIC of antibiotic at 2 μg/mL GPMB (A. baumannii ATCC 17978): 2 µg/mL
FIC index antibiotic + GPMB (A. baumannii ATCC 17978): 1
MIC (A. baumannii ATCC 17978; [3]): 1 µg/mL
Fold-potentiation of antibiotic (A. baumannii ATCC 17978; at 2 μg/mL GCol): 1
Fold-potentiation of antibiotic (A. baumannii ATCC 17978; at 2 μg/mL GPMB): 1
Absolute MIC of antibiotic at 4 μg/mL GCol (P. aeruginosa PAO1): 2 µg/mL
Absolute MIC of antibiotic at 4 μg/mL GPMB (P. aeruginosa PAO1): 2 µg/mL
FIC index antibiotic + GPMB (P. aeruginosa PAO1): 1.016
MIC (P. aeruginosa PAO1; [3]): 2 µg/mL
Fold-potentiation of antibiotic (P. aeruginosa PAO1; at 4 μg/mL GCol): 1
Fold-potentiation of antibiotic (P. aeruginosa PAO1; at 4 μg/mL GPMB): 1

CN[C@H](CC(C)C)C(=O)N[C@H]1C(=O)N[C@@H](CC(N)=O)C(=O)N[C@H]2C(=O)N[C@H]3C(=O)N[C@H](C(=O)N[C@H](C(=O)O)c4cc(O)cc(O)c4-c4cc3ccc4O)[C@H](O)c3ccc(c(Cl)c3)Oc3cc2cc(c3O[C@@H]2O[C@H](CO)[C@@H](O)[C@H](O)[C@H]2O[C@H]2C[C@](C)(N)[C@H](O)[C@H](C)O2)Oc2ccc(cc2Cl)[C@H]1O [Vancomycin]
Absolute MIC of antibiotic at 2 μg/mL GCol (E. coli ATCC 25922): 16 µg/mL
Absolute MIC of antibiotic at 2 μg/mL GPMB (E. coli ATCC 25922): 8 µg/mL
FIC index antibiotic + GCol (E. coli ATCC 25922): 0.25
FIC index antibiotic + GPMB (E. coli ATCC 25922): 0.313
MIC (E. coli ATCC 25922): 128 µg/mL
Fold-potentiation of antibiotic (E. coli ATCC 25922; at 2 μg/mL GCol): 8
Fold-potentiation of antibiotic (E. coli ATCC 25922; at 2 μg/mL GPMB): 16
Absolute MIC of antibiotic at 2 μg/mL GCol (A. baumannii ATCC 17978): 64 µg/mL
Absolute MIC of antibiotic at 2 μg/mL GPMB (A. baumannii ATCC 17978): 16 µg/mL
FIC index antibiotic + GPMB (A. baumannii ATCC 17978): 0.188
MIC (A. baumannii ATCC 17978): 128 µg/mL
Fold-potentiation of antibiotic (A. baumannii ATCC 17978; at 2 μg/mL GCol): 2
Fold-potentiation of antibiotic (A. baumannii ATCC 17978; at 2 μg/mL GPMB): 8
Absolute MIC of antibiotic at 4 μg/mL GCol (P. aeruginosa PAO1): 8 µg/mL
Absolute MIC of antibiotic at 4 μg/mL GPMB (P. aeruginosa PAO1): 2 µg/mL
MIC (P. aeruginosa PAO1): 256 µg/mL
Fold-potentiation of antibiotic (P. aeruginosa PAO1; at 4 μg/mL GCol): 32
Fold-potentiation of antibiotic (P. aeruginosa PAO1; at 4 μg/mL GPMB): 128
